Data on 3 compounds can be found in US20020137731A1, “Combination of radiation and vitamin D3 analogs for the treatment of cancer” (priority 2000, published 2002).

Values joined by “and” are separate entries in the source; they are usually repeats but may differ in a detail not shown here. Equal entries are not always repeated. Where two headings read alike, the source gives them in different places.

Data set [1] deals with MCF-7 breast tumor cells. Particulars: Sundaram and Gewirtz, 1999; Sundaram et al., 2000; cited from earlier work.
The subject of data set [2] is MCF-7 cells. Nature of the data set: TUNEL assay of DNA fragmentation (apoptotic cell death). Format: cell-based, human. Particulars: for DNA fragmentation indicative of apoptotic cell death: agent alone. An excerpt: The method of Gavrielli et al. (1992) was utilized as an independent assessment of apoptotic cell death in combined cytospins containing both adherent and non-adherent cells. The cells were fixed and the fragmented DNA in cells undergoing apoptosis was detected using the In Situ Cell Death detection Kit (Boehringer-Manheim). In this assay, the fragmented DNA in individual cells was end labeled using fluorescein-dUTP at strand breaks by the enzyme terminal transferase. The slides were then washed, mounted in Vectashield and photographed using a Nikon fluorescent microscope. For quantitation, fluorescent cells were scored positive for DNA fragmentation.

In data set [3] the test system is MCF-7 cells. Description: Viable cell number by trypan blue exclusion. It is filed as cell-based, human. How it is done:
(§1) All cell lines were grown from frozen stocks in basal RPMI 1640 medium supplemented with 10% fetal calf serum, 2 mM L-glutamine, penicillin/streptomycin at 37° C. under a humidified, 5% CO2 atmosphere. All studies were conducted using approximately 10^4 cells/cm^2 at day 0 with the use of time-equivalent and concentration-equivalent controls. The results shown are averages of two to three studies.
The response of cells treated with adriamycin (1 μM) for 2 hr and irradiation (10 Gy) was assessed 72 hr after treatment by trypan blue exclusion. The response of cells treated with ILX 23-7553 (200 nM) for 72 hr was evaluated 72 hr after removal of ILX 23-7553. To evaluate the combined effects of adriamycin or irradiation with ILX 23-7553 (200 nM), cells were treated with ILX 23-7553 for 72 hr prior to adriamycin (1 μM) or irradiation (10 Gy) and allowed to grow for an additional 72 hr. Cells were harvested using trypsin, stained with 0.4% trypan blue and trypan blue negative cells were counted under phase contrast microscopy.

The subject of data set [4] is MCF-7 cells. Nature of the data set: Cell morphology (Wright-Giemsa stain, light microscopy). The conditions noted are these: for apoptotic cell morphology (dark and shrunken cells): 72 h after exposure; for apoptotic cell morphology: agent alone. Format: cell-based, human. The source says:
Seventy-two hours after adriamycin or irradiation exposure, cells were washed and cytocentrifuged onto microscopic slides. The cells were stained Wright-Giesma stain and photographed under a Nikon light microscope.

Data set [5] deals with MCF-7 cells. Nature of the data set: Clonogenic analysis (colony forming assay) with statistical model of additivity. Format: cell-based, human. Particulars: for Predicted Response Under Additivity (Surviving Fraction): statistical model of additivity. How it is done: as §1
MCF-7 cells were treated with ILX 23-7553 (200 nM), adriamycin or radiation alone and with ILX 23-7553 preceding various doses of adriamycin or radiation. For analysis of additivity, MCF-7 cells were treated with various doses of ILX 23-7553 (0-200 nM) in combination with a single dose of either adriamycin (20 nM) or irradiation (2.5 Gy). Cells were trypsinized immediately following adriamycin or radiation under sterile conditions and plated in triplicate in 6 well cell culture plates at approximately 1000 cells for each condition. After 7-10 days, the cells were fixed with 100% methanol, air-dried for 1-2 hr and stained with […] crystal violet. Groups of 50 or more cells were counted as colonies.
The predicted responses for the colony forming assay were determined using the following model: y=exp(B0+B1x1+B2x2) where y is the predicted response, x1 is either dose of irradiation ([…]) or adriarnycin (nM), x2 is the dose of ILX 23-7553 (nM), B0 is an unknown parameter associated with the intercept, B1 is an unknown parameter associated with the slope of x1 and B2 is an unknown parameter associated with the slope of x2. Parameter estimates were found using a generalized least squares criterion for nonlinear models. A constant variance was assumed across the dose range of all four compounds. The Gauss-Newton iterative algorithm was used in PROC NLIN in SAS (version 6.12) to find parameter estimates. The compare the observed response at each combination point to that predicted under the hypotheses of additivity, a prediction interval was used following Gennings et al. (1997). An overall test for additivity (Radford et al., 1994) was based on testing they hypothesis that the mean response under the hypothesis of additivity is the true mean response. The estimated responses under the hypothesis of additivity were provided by the additivity model. The estimated responses for the true means were provided by the sample means at each mixture group.

The test system of data set [6] is MCF-7 cells. The conditions noted are these: previous work, literature; cited from earlier work.
Where [7] appears, read: ILX 23-7553 pretreatment followed by radiation.

`C=C1/C(=C\C=C2/CCC[C@]3(C)[C@@H]([C@H](C)/C=C/C=C/C(O)(CC)CC)CC[C@@H]23)C[C@@H](O)C[C@@H]1O` [EB 1089]: in data set [1], the “effect on the response of MCF-7 breast tumor cells to adriamycin and irradiation” value was “enhances”.
Take `C=C1/C(=C\C=C2/CCC[C@]3(C)C([C@H](C)CC#CC(C)(C)O)=CC[C@@H]23)C[C@@H](O)C[C@@H]1O` [ILX 23-7553]: the “percent TUNEL-positive cells (cells with DNA fragmentation)” value in data set [2] (ILX 23-7553 pretreatment followed by adriamycin) was 15% and 14%; in data set [2] (ILX 23-7553 pretreatment followed by irradiation) it was 7%. In addition, the “DNA fragmentation indicative of apoptotic cell death” value in data set [2] is “not induced”. Further, the cytotoxicity at 0.2 µM was determined as 60% in data set [3] (Homo sapiens, MCF7, 72 h, ILX 23-7553 200 nM for 72 h alone, counted 72 h after removal, vs untreated controls, read-out: decrease in viable cell number); 93% in data set [3] (Homo sapiens, MCF7, ILX 23-7553 200 nM 72 h pretreatment followed by 10 Gy ionizing radiation, counted 72 h after, read-out: decrease in viable cell number); 97% in data set [3] (Homo sapiens, MCF7, ILX 23-7553 200 nM 72 h pretreatment followed by adriamycin 1 μM, counted 72 h after, read-out: decrease in viable cell number). In data set [3] (setting [7]), the “decrease in viable cell numbers as compared to ILX 23-7553 alone” value is 66%. The “decrease in viable cell numbers as compared to radiation alone” value in data set [3] (setting [7]) amounted to 24%. Further, the “apoptotic cell morphology (dark and shrunken cells)” value in data set [4] (ILX 23-7553 in combination with adriamycin) and in data set [4] (ILX 23-7553 in combination with irradiation) was “observed” in each case. Further, the apoptotic cell morphology entry in data set [4] was “did not produce cells with this apoptotic morphology”. For the same compound, in data set [5] (200 nM ILX 23-7553 pretreatment for 72 h vs adriamycin alone), the “fold decrease in adriamycin dose required to reduce clonogenic survival by 50%” value is ~2.5 fold and 2 fold. Further, the “fold reduction in irradiation dose required to reduce clonogenic survival by 50%” value in data set [5] (200 nM ILX 23-7553 pretreatment for 72 h vs irradiation alone) is listed as 4 fold. Also, the “Observed Mean Response (Surviving Fraction)” value is reported as 0.67 in data set [5] (Adr 1 nM, ILX 200 nM); 0.58 in data set [5] (Adr 5 nM, ILX 200 nM); 0.52 in data set [5] (Adr 10 nM, ILX 200 nM); 0.58 in data set [5] (Adr 20 nM, ILX 50 nM); 0.50 in data set [5] (Adr 20 nM, ILX 100 nM); 0.46 in data set [5] (Adr 20 nM, ILX 200 nM). The “Observed Mean Response (Surviving Fraction)” value in data set [5] (Adr 100 nM, ILX 200 nM) is on record as 0.24; in data set [5] (IR 0.5 Gy, ILX 200 nM) it was 0.34; in data set [5] (IR 1.0 Gy, ILX 200 nM) it was 0.27; in data set [5] (IR 2.5 Gy, ILX 50 nM), 0.23; in data set [5] (IR 2.5 Gy, ILX 200 nM), 0.20; in data set [5] (IR 5.0 Gy, ILX 200 nM), 0.13. Moreover, the “Predicted Response Under Additivity (Surviving Fraction)” value is recorded as 0.53 in data set [5] (Adr 1 nM, ILX 200 nM); 0.51 in data set [5] (Adr 5 nM, ILX 200 nM); 0.49 in data set [5] (Adr 10 nM, ILX 200 nM); 0.63 in data set [5] (Adr 20 nM, ILX 50 nM); 0.56 in data set [5] (Adr 20 nM, ILX 100 nM); 0.44 in data set [5] (Adr 20 nM, ILX 200 nM). Also, the “Predicted Response Under Additivity (Surviving Fraction)” value in data set [5] (Adr 100 nM, ILX 200 nM) was 0.20; in data set [5] (IR 0.5 Gy, ILX 200 nM), 0.51; in data set [5] (IR 1.0 Gy, ILX 200 nM), 0.41; in data set [5] (IR 2.5 Gy, ILX 50 nM), 0.29; in data set [5] (IR 2.5 Gy, ILX 200 nM) it was 0.22; in data set [5] (IR 5.0 Gy, ILX 200 nM), 0.08. The “dose of irradiation required to produce a 50% decrease in clonogenic survival” value in data set [5] (after 200 nM ILX 23-7553 pretreatment (irradiation alone: 1 Gy)) amounted to 0.25 Gy. Also, the “type of interaction between ILX 23-7553 and irradiation (additive vs synergistic)” value in data set [5] (colony forming assays, observed vs predicted surviving fractions, p=0.196) is recorded as “additively”. Moreover, the “type of interaction between ILX 23-7553 and adriamycin (additive vs synergistic)” value in data set [5] (colony forming assays, observed vs predicted surviving fractions, p=0.461) is “additively”.
Regarding `COc1cccc2c1C(=O)c1c(O)c3c(c(O)c1C2=O)C[C@@](O)(C(=O)CO)C[C@@H]3O[C@H]1C[C@H](N)[C@H](O)[C@H](C)O1` [adriamycin, reference compound], in data set [2], the “DNA fragmentation indicative of apoptotic cell death” value is listed as “not induced”. The cytotoxicity at 1 µM in data set [3] (Homo sapiens, MCF7, adriamycin 1 μM (2 hr acute exposure) alone, counted 72 h after, vs untreated controls, read-out: decrease in viable cell number) came to 74%. Also, the apoptotic cell morphology entry in data set [4] is on record as “did not produce cells with this apoptotic morphology”. Besides, the “induction of apoptotic cell death” value in data set [6] is “neither adriamycin nor irradiation induces apoptotic cell death”.
